Results reported in patent US20090281152A1, “Indole Compounds Having Affinity to the EP1 Receptor” (priority 2006, published 2009).

Key:
human EP3 receptor = molecular target: T1, human EP3 receptor (Homo sapiens, UniProt P43115); assay: human EP3 calcium mobilisation assay (FLIPR, CHO-K1 cells); format: cell-based; conditions: antagonism of PGE2-induced calcium mobilisation, averages of a number of experiments, read-out: functional pKi (converted)
T1 construct: expressed in transfected cells; host or cells: CHO-K1 cells, pCIN vector
T1 sequence (P43115 1-390): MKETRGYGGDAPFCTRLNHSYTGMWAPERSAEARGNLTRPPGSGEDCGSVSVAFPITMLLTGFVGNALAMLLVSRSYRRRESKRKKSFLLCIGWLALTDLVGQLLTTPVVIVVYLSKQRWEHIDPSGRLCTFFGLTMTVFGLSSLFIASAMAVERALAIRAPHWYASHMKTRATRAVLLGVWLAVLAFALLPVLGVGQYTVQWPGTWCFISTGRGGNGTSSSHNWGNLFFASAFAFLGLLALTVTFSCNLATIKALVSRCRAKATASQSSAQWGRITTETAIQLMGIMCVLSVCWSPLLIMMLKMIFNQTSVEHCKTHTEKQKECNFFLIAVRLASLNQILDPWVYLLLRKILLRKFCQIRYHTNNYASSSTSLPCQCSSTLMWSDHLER
Protocol: Briefly, the antagonist properties of compounds are assessed by their ability to inhibit the mobilisation of intracellular calcium ([Ca^2+]i) in response to activation of EP1 or EP3 receptors by the natural agonist hormone prostaglandin E2 (PGE2). Increasing concentrations of antagonist reduce the amount of calcium that a given concentration of PGE2 can mobilise. The net effect is to displace the PGE2 concentration-effect curve to higher concentrations of PGE2. The amount of calcium produced is assessed using a calcium-sensitive fluorescent dye such as Fluo-4, AM and a suitable instrument such as a Fluorimetric Imaging Plate Reader (FLIPR). Increasing amounts of [Ca^2+]i produced by receptor activation increase the amount of fluorescence produced by the dye and give rise to an increasing signal. The signal may be detected using the FLIPR instrument and the data generated may be analysed with suitable curve-fitting software.
The human EP1 or EP3 calcium mobilisation assay (hereafter referred to as ‘the calcium assay’) utilises Chinese hamster ovary-K1 (CHO-K1) cells into which a stable (pCIN; BioTechniques 20 (1996): 102-110) vector containing either EP1 or EP3 cDNA has previously been transfected. Cells are cultured in suitable flasks containing culture medium such as DMEM:F-12 supplemented with 10% v/v foetal calf serum, 2 mM L-glutamine, 0.25 mg/ml geneticin, 100 μM flurbiprofen and 10 μg/ml puromycin.
For assay, cells are harvested using a proprietary reagent that dislodges cells such as Versene. Cells are re-suspended in a suitable quantity of fresh culture media for introduction into a 384-well plate. Following incubation for 24 hours at 37° C. the culture media is replaced with a medium containing Fluo-4 and the detergent pluronic acid, and a further incubation takes place. Concentrations of compounds are then added to the plate in order to construct concentration-effect curves. This may be performed on the FLIPR in order to assess the agonist properties of the compounds. […]
The data so generated may be analysed by means of a computerised curve-fitting routine. […]

[1] = test system: rodent model of post-operative pain; conditions: Anesthesia and Analgesia 2001, 92, 233-238; cited from earlier work
[2] = test system: rat model of chronic constriction injury; conditions: Anesthesia and Analgesia 2001, 93, 1012-7; cited from earlier work

| Compound | Ki (human EP3 receptor) [µM] | mechanical hyperalgesia [1] | hyperalgesia and allodynia [2] |
| --- | --- | --- | --- |
| CC(C)Cn1cc(-c2nc(C(=O)O)cs2)c2cc(Cl)ccc21 [Example 7, 2-[5-Chloro-1-(2-methylpropyl)-1H-indol-3-yl]-1,3-thiazole-4-carboxylic acid] | ≥ 1 | – | – |
| CC(C)Cn1cc(-c2nc(C(=O)O)co2)c2cc(Cl)ccc21 [Example 8, 2-[5-Chloro-1-(2-methylpropyl)-1H-indol-3-yl]-1,3-oxazole-4-carboxylic acid] | ≥ 1 | – | – |
| Cc1ccc2c(c1)c(-c1nc(C(=O)NS(=O)(=O)c3ccccc3)co1)cn2CC(C)C [Example 10, 2-[5-Methyl-1-(2-methylpropyl)-1H-indol-3-yl]-N-(phenylsulfonyl)-1,3-oxazole-4-carboxamide] | > 0.316 | – | – |
| Cc1cc(Cl)ccc1S(=O)(=O)NC[C@H]1C2CCC(CC2)[C@@H]1/C=C\CCCC(=O)O [ONO-8711] | – | inhibits mechanical hyperalgesia | reduces hyperalgesia and allodynia |
